Experimental data taken from the supplement of paper PMC5579334.
± gives the standard deviation of the averaged measurements.

Tests used:
HS-PSS [1] = test: drug sensitivity score (DSS, CellTiter-Glo viability, 72 h) (DSS (dimensionless)); higher = more sensitive; extreme values may be limits of the assay
In short: (§1)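 Viability of MPNST cell lines and primary human Schwann cells was read as CellTiter-Glo ATP luminescence after 72 h at 37 °C, 5% CO2, in 384-well plates seeded with 750–1000 cells per well. Each compound had been preprinted at five concentrations in 10-fold steps. Signals were scaled between vehicle and positive-control wells, duplicates averaged where present, and fitted with four-parameter logistic curves. Drug sensitivity score and relative IC50 (censored at the top concentration) come from those fits, and percent inhibition is taken at the top concentration.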

HS-Sch-2 [2] = test: as above
In short: as §1

[3] = tested on: HSC1 (primary human Schwann cells); test: as above
In short: as §1

[4] = tested on: HSC2 (primary human Schwann cells); test: as above
In short: as §1

S1507-2 [5] = test: as above
In short: as §1

S462 [6] = test: as above
In short: as §1

ST8814 [7] = test: as above
In short: as §1

STS26T [8] = test: as above
In short: as §1

YST-1 [9] = test: as above
In short: as §1

HS-PSS [10] = test: drug sensitivity score (DSS, CellTox-Green cytotoxicity, 72 h) (DSS (dimensionless)); higher = more cytotoxic; extreme values may be limits of the assay
In short: (§2)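 MPNST cell lines and primary human Schwann cells were grown for 72 h at 37 °C in 384-well plates containing five 10-fold compound dilutions. CellTox-Green, added before seeding at a final 1:1000 dilution, gave fluorescence from DNA released by disrupted cells, and signals were scaled to vehicle and positive-control wells. Curves were fitted with a four-parameter logistic model. Drug sensitivity score and relative IC50 come from these fits, with IC50 censored at the top concentration.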

[11] = tested on: HSC1 (primary human Schwann cells); test: as above
In short: as §2

[12] = tested on: HSC2 (primary human Schwann cells); test: as above
In short: as §2

S1507-2 [13] = test: as above
In short: as §2

ST8814 [14] = test: as above
In short: as §2

STS26T [15] = test: as above
In short: as §2

HS-PSS [16] = test: % inhibition of CellTiter-Glo viability at highest tested concentration (72 h), relative to DMSO and benzethonium chloride controls; higher = more inhibition
In short: as §1

HS-Sch-2 [17] = test: as above
In short: as §1

[18] = tested on: HSC1 (primary human Schwann cells); test: as above
In short: as §1

[19] = tested on: HSC2 (primary human Schwann cells); test: as above
In short: as §1

S1507-2 [20] = test: as above
In short: as §1

S462 [21] = test: as above
In short: as §1

ST8814 [22] = test: as above
In short: as §1

STS26T [23] = test: as above
In short: as §1

YST-1 [24] = test: as above
In short: as §1

Compound | drug sensitivity score (HS-PSS [1]) | drug sensitivity score (HS-Sch-2 [2]) | drug sensitivity score [3] | drug sensitivity score [4] | drug sensitivity score (S1507-2 [5]) | drug sensitivity score (S462 [6]) | drug sensitivity score (ST8814 [7]) | drug sensitivity score (STS26T [8]) | drug sensitivity score (YST-1 [9]) | drug sensitivity score (HS-PSS [10]) | drug sensitivity score [11] | drug sensitivity score [12] | drug sensitivity score (S1507-2 [13]) | drug sensitivity score (ST8814 [14]) | drug sensitivity score (STS26T [15]) | % inhibition (HS-PSS [16]) [%] | % inhibition (HS-Sch-2 [17]) [%] | % inhibition [18] [%] | % inhibition [19] [%] | % inhibition (S1507-2 [20]) [%] | % inhibition (S462 [21]) [%] | % inhibition (ST8814 [22]) [%] | % inhibition (STS26T [23]) [%] | % inhibition (YST-1 [24]) [%]
Cc1cc(Nc2cc(CN3CCOCC3)c3nc(C)c(Cc4ccc(Cl)cc4F)n3n2)n[nH]1 [Gandotinib] (max concentration tested 10000 nM) | 7.29 | 9.06 | 10.2 | 10.9 | 10.4 ± 1.9 | 11.7 ± 2.7 | 8.52 | 8.72 | 7.71 | 0.55 | 8.02 | 7.38 | 7.03 ± 1.3 | 5.3 | 3.96 | 68 | 96.6 | 103 | 103 | 101.6 ± 0.37 | 96.5 ± 2.7 | 97.2 | 68.9 | 70.5
O=C(NC[C@H](O)CO)c1ccncc1Nc1ccc(I)cc1F [Pimasertib] (max concentration tested 10000 nM) | 2.94 | 5.83 | 7.67 | 7.43 | 11.9 ± 1.4 | 11.9 ± 0.82 | 10.8 | 6.72 | 1.29 | 0 | 0.153 | 0 | 5.35 ± 0.4 | 6.32 | 0.309 | 44.3 | 55.4 | 60.7 | 65 | 81.8 ± 2.4 | 83.69 ± 0.41 | 95.9 | 42 | 34.4
Cn1c(Nc2ccc(C(F)(F)F)cc2)nc2cc(Oc3ccnc(-c4ncc(C(F)(F)F)[nH]4)c3)ccc21 [RAF265] (max concentration tested 1000 nM) | 4.44 | 1.56 | 11.2 | 14.4 | 4.23 ± 0.6 | 5.79 ± 0.67 | 3.46 | 3.93 | 2.73 | 0 | 0 | 0 | 0 | 0 | 0 | 52.2 | 22.3 | 70.8 | 68.9 | 43.6 ± 6 | 51.9 ± 1.2 | 33.1 | 40.9 | 30.2
COC(=O)C[C@](O)(CCCC(C)(C)O)C(=O)O[C@@H]1C(OC)=C[C@]23CCCN2CCc2cc4c(cc2[C@H]13)OCO4 [Omacetaxine] (max concentration tested 10000 nM) | 23.1 | 26 | 25.4 | 26.6 | 25.33 ± 0.068 | 31.4 ± 0.81 | 25.2 | 27.9 | 36.4 | 1.24 | 8.49 | 11.7 | 13.4 ± 3 | 5 | 15 | 80.3 | 102 | 92 | 96.2 | 98.539 ± 0.044 | 99.121 ± 0.0091 | 88.6 | 98.6 | 99.5
CO[C@H]1/C=C\C=C(/C)C(=O)NC2=CC(=O)C(NCCN(C)C)=C(C[C@@H](C)C[C@H](OC)[C@H](O)[C@@H](C)/C=C(\C)[C@@H]1OC(N)=O)C2=O [Alvespimycin] (max concentration tested 1000 nM) | 13.8 | 15.8 | 10 | 9.75 | 12.3 ± 0.18 | 15.4 ± 0.78 | 14.6 | 12.5 | 15.4 | 3.83 | 8.04 | 8.36 | 7.17 ± 1.2 | 6.78 | 7.8 | 85.3 | 100 | 98.1 | 96.2 | 95.7 ± 2.9 | 99.51 ± 0.13 | 98.8 | 91.8 | 78.2
CO[C@@]12[C@H](COC(N)=O)C3=C(C(=O)C(C)=C(N)C3=O)N1C[C@@H]1N[C@@H]12 [Mitomycin C] (max concentration tested 10000 nM) | 0.31 | 0.9 | 2.63 | 2.34 | 3.18 ± 0.05 | 3.23 ± 0.21 | 3.61 | 2.31 | 4.11 | 0 | 2.29 | 2.91 | 2.38 ± 3 | 5.46 | 1.57 | 16.2 | 28.5 | 52.1 | 51.3 | 69.5 ± 1.9 | 68.5 ± 1.9 | 77.4 | 50.2 | 55.7
CC(C)C[C@H](NC(=O)[C@H](CCc1ccccc1)NC(=O)CN1CCOCC1)C(=O)N[C@@H](Cc1ccccc1)C(=O)N[C@@H](CC(C)C)C(=O)[C@@]1(C)CO1 [Carfilzomib] (max concentration tested 1000 nM) | 23.3 | 31.2 | 23 | 24.4 | 21.7 ± 1.4 | 29 ± 2 | 24.8 | 24.9 | 28.1 | 17.5 | 19.3 | 19.7 | 21.4 ± 2.3 | 21.7 | 21.5 | 99.9 | 102 | 103 | 101 | 102.9 ± 0.73 | 104 ± 1.3 | 102 | 103 | 101
Cc1ccc(NC(=O)c2ccc(CN3CCN(C)CC3)cc2)cc1Nc1nccc(-c2cccnc2)n1 [Imatinib] (max concentration tested 10000 nM) | 4.08 | 4.96 | 0 | 0 | 3.9 ± 0.28 | 0.251 ± 0.2 | 1.36 | 0.675 | 4.29 | 0.1 | 0 | 0 | 0.237 ± 0.34 | 1.72 | 0 | 58.8 | 89.5 | 9.96 | 8.82 | 49.5 ± 1.2 | 16.7 ± 2.7 | 33.4 | 23.5 | 53.8
CC(O)(CS(=O)(=O)c1ccc(F)cc1)C(=O)Nc1ccc(C#N)c(C(F)(F)F)c1 (stereo not drawn) [Bicalutamide] (max concentration tested 10000 nM) | 0.45 | 0.01 | 0.0562 | 0 | 0 | 0.149 ± 0.21 | 0 | 0.0466 | 0 | 0 | 0 | 0 | 0 | 0 | 0 | 14.1 | 12.8 | 11.9 | -3.88 | 0.808 ± 0.64 | 7.3 ± 7.9 | 7.2 | 12 | -3.03
Cc1c2oc3c(C)ccc(C(=O)N[C@@H]4C(=O)N[C@H](C(C)C)C(=O)N5CCC[C@H]5C(=O)N(C)CC(=O)N(C)[C@@H](C(C)C)C(=O)O[C@@H]4C)c3nc-2c(C(=O)N[C@@H]2C(=O)N[C@H](C(C)C)C(=O)N3CCC[C@H]3C(=O)N(C)CC(=O)N(C)[C@@H](C(C)C)C(=O)O[C@@H]2C)c(N)c1=O [Dactinomycin] (max concentration tested 1000 nM) | 25.1 | 32.5 | 30.8 | 33.5 | 23.4 ± 0.57 | 32.3 ± 1.7 | 25.3 | 31.9 | 37.4 | 6.19 | 12.7 | 14.7 | 5.68 ± 3.9 | 5.68 | 25.8 | 86.7 | 102 | 83 | 89.2 | 87 ± 3.5 | 99.1 ± 1.6 | 85.6 | 99 | 101
Cc1cc(Nc2nc(N[C@@H](C)c3ncc(F)cn3)ncc2Cl)[nH]n1 [AZD1480] (max concentration tested 1000 nM) | 0.78 | 0 | 2.84 | 0.934 | 0.0872 ± 0.12 | 1.64 ± 0.2 | 0.0148 | 0.3 | 0.54 | 0 | 0 | 0.662 | 5.43 ± 7.7 | 0 | 0 | 20.3 | 2.41 | 37.6 | 17 | 11.6 ± 8 | 26.4 ± 3.4 | 10.4 | 18.1 | 20.3
C[C@@H]1C[C@H]2[C@@H]3CCC4=CC(=O)C=C[C@]4(C)[C@@]3(F)[C@@H](O)C[C@]2(C)[C@@]1(O)C(=O)CO [Dexamethasone] (max concentration tested 10000 nM) | 0 | 0 | 0 | 0 | 1.35 ± 1.9 | 0.0796 ± 0.11 | 4.78 | 0 | 2.91 | 0 | 0 | 0 | 0 | 0 | 0 | -11.7 | 11.7 | -11.8 | -7.28 | 16.5 ± 13 | 9.85 ± 6.5 | 22.9 | 3.98 | 6.77
